Measured values from patent publication US12606541B2, “PPARg modulators and methods of use” (Eisai R&D Management Co., Ltd., priority 2020, dated 2026).
Like-named read-outs stand apart in the source and are kept apart here.

Key:
His6-TEV-PPARγ-(234-505) = biological target: T1, His6-TEV-PPARγ-(234-505) (Homo sapiens, UniProt P37231); test: TR-FRET Assay to Measure Co-R Peptide Recruitment to PPARγ; assay type: biochemical; details: Co-R peptide (SMRT-ID2) recruitment; top final concentration 20 μM; read-out: TR-FRET i-Ag; AC50
T1 construct: The His6-TEV-PPARγ-(234-505) protein for assay was expressed and purified; TEV cleavage site (N); made in house
T1 sequence (P37231 234-505): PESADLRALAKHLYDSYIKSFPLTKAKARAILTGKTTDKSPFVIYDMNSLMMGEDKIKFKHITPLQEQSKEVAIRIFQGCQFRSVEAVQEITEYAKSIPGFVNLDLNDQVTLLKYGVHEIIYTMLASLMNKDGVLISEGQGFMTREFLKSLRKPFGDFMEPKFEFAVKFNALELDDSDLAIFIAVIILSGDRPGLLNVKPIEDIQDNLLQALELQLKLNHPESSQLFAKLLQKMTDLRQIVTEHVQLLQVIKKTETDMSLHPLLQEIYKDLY
Method in brief: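 His-tagged PPARγ (or controls) was preincubated with compound for 20 minutes at room temperature, then 5 nM anti-His terbium antibody and 200 nM FITC-labeled SMRT-ID2 corepressor peptide (final) were added for a further hour. TR-FRET signal was normalized to percent response using 500 nM T0070907 and DMSO controls.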

UM-UC-9 engineered cells = test: Cell proliferation / short-term viability assay, CellTiter-Glo 144 h; assay type: cell-based, human; details: read-out: CTGlo 144 h UMUC9.5, G150
Procedure: Cell Seeding for Proliferation Assay
UM-UC-9 engineered cells were cultured in Dulbecco's Modified Eagle Medium (DMEM) supplemented with 10% FBS, 25 mM glucose (high glucose), 4.0 mM L-glutamine, 2.0 mM GlutaMAX™, 1.0 mM pyruvate, 1.0% non-essential amino acids (NEAA) in a 95% humidified incubator at 37° C. with 5% CO2. Cell banks of UM-UC-9 engineered assay-ready cells (ARCs) were prepared from a very active growth stage. Vials of ARCs containing approximately 5×10^6 cells per vial were stored in liquid nitrogen vapor phase cryostorage until use.
For making assay plates, ARCs were recovered from cryostorage, strained in a […] cell strainer, verified for cell viability >90% and counted using a cell counter (Cellometer Auto 1000, Nexelom). Each cell line was seeded into 384-well plates (50 μl/well) using DMEM medium at a density previously determined to be in log growth phase 7 days post-seeding (500 cells/well) using a bulk reagent dispenser (Multidrop™ Combi, Thermo Scientific) with a large-bore plastic-tip cassette pre-sanitized with 70% ethanol. One plate of cells was designated as the pretreatment time-zero (T0) control. Freshly seeded plates were allowed to sit lidded for 30 minutes within a biosafety cabinet for cells to settle distributed within the plate wells uniformly and then placed into an automated incubator (STX110, Liconic) at 37° C., 5% CO2, and 95% relative humidity.
Preparation of Test Compound in Assay-Ready Plate
Compounds were stored in a low-temperature sample archive as 10 mM dimethyl sulfoxide (DMSO) solutions at −20° C. under reduced humidity (−45° C. dew point) and protected from light. All samples in the automated archive are stored in 2D barcoded polypropylene tubes, tracked through a laboratory information management system (LIMS), and have been verified for identity and purity by NMR (Chemistry, H3 Biomedicine) and by LCMS (Analytical Chemistry, H3 Biomedicine) at the time of sample registration. Identity by mass matching and purity are again verified at the time of sample request fulfillment by redundant LCMS methods (acidic and basic separation protocols; Analytical Chemistry, H3 Biomedicine). Samples retrieved from low-temperature archive storage were solubilized by heated sonication (Bransonic® Ultrasonic Bath, Branson), transferred (Microlab Starlet, Hamilton) and serially-diluted (Viaflo Assist, Integra) by low-volume liquid handlers, and tracked in LIMS by automation log files to create a ID barcoded master dose-response plate (MDR) to serve as a standard source for all assay-ready plates (ARP) used within an experiment. ARPs prepared by acoustic transfer (ATS-100, EDC) of nL volumes from the MDR source were heat-sealed (PlateLoc, Agilent) and stored at −20° C. prior to use (<7 days from production). Tracking of liquid transfers via acoustic dispenser log files were used to update the LIMS system for all ARP plate maps.
Measurement of Pretreatment Control Cells and Sample Anti-Proliferative Effects on Treated Cells
On day 0 (pretreatment cells) or day 7 (treated cells), a cell proliferation assay was performed using an automated robotic assay platform (ACell, High-Res Biosolutions). Cell ARP's were removed from incubation, their plate lid discarded, and using a bulk reagent dispenser (Multidrop™ Combi, Thermo Scientific with a small-bore metal-tip cassette) 25 μL (1/2 volume) of Cell Titer-Glo® 2.0 Cell Viability Assay reagent (Promega) was added to wells of columns 1-23 (column 24 will be used as plate background or positive control). Cell ARP's were incubated at room temperature in an automation hotel position for a total of 1.0 minute while the next plate was delivered to the bulk reagent dispenser and then lid-free cell ARP's were returned to incubate at 37° C. for 2.5 hours. […]

SMILES	AC50 (His6-TEV-PPARγ-(234-505))	IC50 (UM-UC-9 engineered cells; Homo sapiens, UM-UC-9, 144 h)	IC50 (UM-UC-9 engineered cells)
COc1cc(-c2cc(C(=O)N3CCC(C(=O)NC4COC(C)OC4)CC3)n[nH]2)c(Cl)cn1 (mixture of isomers) [Example 121, 1-[5-(5-Chloro-2-methoxypyridin-4-yl)-1H-pyrazole-3-carbonyl]-N-(2-methyl-1,3-dioxan-5-yl) piperidine-4-carboxamide]	807 nM	2220 nM	–
COc1cc(-c2cc(C(=O)N3CCC(C(=O)NC4CCC(O)(C(F)(F)F)CC4)CC3)n[nH]2)c(Cl)cn1 (mixture of isomers) [Example 144, 1-(5-(5-chloro-2-methoxypyridin-4-yl)-1H-pyrazole-3-carbonyl)-N-(4-hydroxy-4-(trifluoromethyl)cyclohexyl)piperidine-4-carboxamide]	44.7 nM	334 nM	–
COc1cc(-c2cc(C(=O)N3CCC(C(=O)NCC4CC(OC)C4)CC3)n[nH]2)c(Cl)cn1 (mixture of isomers) [Example 145, 1-(5-(5-chloro-2-methoxypyridin-4-yl)-1H-pyrazole-3-carbonyl)-N-((3-methoxycyclobutyl)methyl)piperidine-4-carboxamide]	688 nM	4120 nM	–
COc1cc(-c2cc(C(=O)N3CCC(C(=O)NC4CC(C)CC(C)(C)C4)CC3)n[nH]2)c(Cl)cn1 (mixture of isomers) [Example 150, 1-(5-(5-chloro-2-methoxypyridin-4-yl)-1H-pyrazole-3-carbonyl)-N-(3,3,5-trimethylcyclohexyl)piperidine-4-carboxamide]	269 nM	779 nM	–
COc1cc(-c2cc(C(=O)N3CCC(C(=O)NC4CCC(O)(C(F)(F)F)CC4)CC34CC4)n[nH]2)c(F)cn1 (mixture of isomers) [Example 169, (R)-4-(5-(5-fluoro-2-methoxypyridin-4-yl)-1H-pyrazole-3-carbonyl)-N-((1r,4R)-4-hydroxy-4-(trifluoromethyl)cyclohexyl)-4-azaspiro[2.5]octane-7-carboxamide and (S)-4-(5-(5-fluoro-2-methoxypyridin-4-yl)-1H-pyrazole-3-carbonyl)-N-((1r,4S)-4-hydroxy-4-(trifluoromethyl)cyclohexyl)-4-azaspiro[2.5]octane-7-carboxamide]	4.5 nM	–	2.1 nM
COc1cc(-c2cc(C(=O)N3CCC(C(=O)NCc4cccc(Cl)c4)CC3C)n[nH]2)c(Cl)cn1 (mixture of isomers) [Example 172, 1-(5-(5-chloro-2-methoxypyridin-4-yl)-1H-pyrazole-3-carbonyl)-N-(3-chlorobenzyl)-2-methylpiperidine-4-carboxamide]	16.5 nM	163 nM	–
COc1cc(-c2cc(C(=O)N3CCC(C(=O)NC4CC(C)(F)C4)CC3)n[nH]2)c(Cl)cn1 (mixture of isomers) [Example 246, 1-(5-(5-chloro-2-methoxypyridin-4-yl)-1H-pyrazole-3-carbonyl)-N-(3-fluoro-3-methylcyclobutyl)piperidine-4-carboxamide]	383 nM	1230 nM	–
COc1cc(-c2cc(C(=O)N3CCC(C(=O)NC4COC(C)C4)CC3)n[nH]2)c(Cl)cn1 (mixture of isomers) [Example 247, 1-(5-(5-chloro-2-methoxypyridin-4-yl)-1H-pyrazole-3-carbonyl)-N-(5-methyltetrahydrofuran-3-yl)piperidine-4-carboxamide]	565 nM	2230 nM	–
COc1cc(-c2cc(C(=O)N3[C@@H]4CC[C@H]3C[C@H](C(=O)NC3CCC5(CCO5)CC3)C4)n[nH]2)c(F)cn1 (mixture of isomers) [Example 297, (1R,3S,5S)-8-[5-(5-fluoro-2-methoxypyridin-4-yl)-1H-pyrazole-3-carbonyl]-N-[1-oxaspiro[3.5]nonan-7-yl]-8-azabicyclo[3.2.1]octane-3-carboxamide]	120 nM	383 nM	–
Cc1cc(-c2cc(C(=O)N3CC[C@@H](C(=O)NC4CCC5(CCO5)CC4)CC34CC4)n[nH]2)ncn1 (mixture of isomers) [Example 300-A, (R)-4-(5-(6-methylpyrimidin-4-yl)-1H-pyrazole-3-carbonyl)-N-(1-oxaspiro[3.5]nonan-7-yl)-4-azaspiro[2.5]octane-7-carboxamide]	18000 nM	> 4000 nM	–
COc1cc(-c2cc(C(=O)N3C4CCC3CC(C(=O)NC3CCC(C(F)(F)F)N(C)C3)C4)n[nH]2)c(F)cn1 (mixture of isomers) [Example 306-A]	13.9 nM	78.8 nM	–
COc1cc(-c2cc(C(=O)N3[C@@H]4CC[C@H]3C[C@H](C(=O)NC3CCC5(CC3)OCC5(F)F)C4)n[nH]2)c(F)cn1 (mixture of isomers) [Example 307, (1R,3s,5S)—N-(3,3-difluoro-1-oxaspiro[3.5]nonan-7-yl)-8-(5-(5-fluoro-2-methoxypyridin-4-yl)-1H-pyrazole-3-carbonyl)-8-azabicyclo[3.2.1]octane-3-carboxamide]	22.1 nM	173 nM	–

The next lines start with results.

AC50 (His6-TEV-PPARγ-(234-505))	SMILES	IC50 (UM-UC-9 engineered cells; Homo sapiens, UM-UC-9, 144 h)	IC50 (UM-UC-9 engineered cells)
447 nM	COc1cc(-c2cc(C(=O)N3CCC(C(=O)NC4(C)CCC(C)CC4)CC3)n[nH]2)c(Cl)cn1 (mixture of isomers) [Example 163, 1-(5-(5-chloro-2-methoxypyridin-4-yl)-1H-pyrazole-3-carbonyl)-N (1,4-dimethylcyclohexyl)piperidine-4-carboxamide]	747 nM	–
179 nM	COc1cc(-c2cc(C(=O)N3CCC(C(=O)NC4[C@@H]5CCC[C@H]4CC5)CC3)n[nH]2)c(F)cn1 (mixture of isomers) [Example 165, N-(bicyclo[3.2.1]octan-8-yl)-1-(5-(5-fluoro-2-methoxypyridin-4-yl)-1H-pyrazole-3-carbonyl)piperidine-4-carboxamide]	435 nM	–
674 nM	COc1cc(-c2cc(C(=O)N3CCC(C(=O)NCc4cccc(Cl)c4)C(C)C3)n[nH]2)c(Cl)cn1 (mixture of isomers) [Example 173, 1-(5-(5-chloro-2-methoxypyridin-4-yl)-1H-pyrazole-3-carbonyl)-N-(3-chlorobenzyl)-3-methylpiperidine-4-carboxamide]	2100 nM	–
29.8 nM	COc1cc(-c2cc(C(=O)N3CCC(C(=O)NCc4cccc(Cl)c4)C(F)C3)n[nH]2)c(Cl)cn1 (mixture of isomers) [Example 177, 1-(5-(5-chloro-2-methoxypyridin-4-yl)-1H-pyrazole-3-carbonyl)-N-(3-chlorobenzyl)-3-fluoropiperidine-4-carboxamide]	68.9 nM	–
182 nM	COc1cc(-c2cc(C(=O)N3CCC(C(=O)NC4c5ccccc5OCC4OC)CC3)n[nH]2)c(Cl)cn1 (mixture of isomers) [Example 252, 1-(5-(5-chloro-2-methoxypyridin-4-yl)-1H-pyrazole-3-carbonyl)-N-(3-methoxychroman-4-yl)piperidine-4-carboxamide]	1150 nM	–
